In patent US10118942B2, “Toll-like receptor 2 ligands and methods of making and using thereof” (H. LEE MOFFITT CANCER CENTER AND RESEARCH INSTITUTE, INC., priority 2015, dated 2018):
“Also recorded” adds a separate entry of the source. Like-named read-outs stand apart in the source and are kept apart here. Each block holds one compound with its values, some of them ahead of it.

Columns and labels:
SU.86.86 cells = test: Cytotoxicity assay (Dojindo CCK8 Kit); type: cell-based, human; conditions: 24 hours, 21 to 2690 nM
Protocol: SU.86.86 were treated with Compound 16 for 24 hours over a range of concentrations (40 to 512 ng/mL corresponding to 21 to 2690 nM). Pam2CSK4 was added to SU.86.86 for 24 hours over the same range of concentrations (40 to 512 ng/mL). Three different experiments were performed in triplicate (n≥3). Data were analyzed with GraphPad Prism software.

TLR2 [1] = molecular target: T1, TLR2 (Homo sapiens, UniProt O60603); test: In vitro TLR2 functional bioassay (NF-κB luciferase reporter); type: cell-based; conditions: HEK-293/hTLR2 cells; for agonist activity compared to TLR2 agonist controls (Pam2CSK4, Pam3CSK4, HKLM): all at 1 μg/mL
Protocol: The in vitro TLR2 functional bioassay was developed and optimized for use in high-throughput screening of soluble compound libraries to identify both TLR2 agonists and antagonists. The bioassay measures the induction of NF-κB signaling via TLR2 in HEK-293/hTLR2 cells (Invivogen) and parental HEK-293 cells as a negative control. Cells were seeded at a density of 40,000 per well using a WellMate microplate dispenser (Thermo Fisher Scientific/Matrix) in black 96-well plates with opaque white wells (PerkinElmer, Waltham, Mass.) and then incubated at 37° C. On day 2, the cells were transiently transfected with pNifty-Luc(InvivoGen, San Diego, Calif.), an NF-κB inducible reporter plasmid expressing the luciferase reporter gene (Schindler et al., Three NF-kappa B binding sites in the human E-selectin gene required for maximal tumor necrosis factor alpha-induced expression. Mol Cell Biol 1994, 14(9):5820-31) using an optimized 4:1 ratio by volume of FugeneHD transfection reagent (Promega, Madison, Wis.) to pNifty-Luc plasmid DNA (1 μg/mL). On day 3, the cells were stimulated with either test peptides or controls adjusted to a final concentration of 1 μg/mL using a NanoDrop spectrophotometer, ND1000 (Thermo Fisher Scientific). Synthetic di- and triacylated LP ligands, Pam2CSK4 and Pam3CSK4 (InvivoGen), were used as positive controls. TNF-α (InvivoGen) was also used as a transfection control that induces NF-κB independently of TLR2. On day 4 after 24 h of peptide stimulation, luciferase induced activity by the induction of NF-κB was measured. The medium was aspirated from the wells using an ELx405 SelectCW plate washer (BioTek, Winooski, Vt.), and 150 μg/mL D-luciferin (Gold Biotechnology, St. Louis, Mo.) was dispensed using the microplate dispensor. The plates were incubated at 37° C. for 5 min. The luminescence intensity was measured using the standard luminescence protocol on a Victor X4 multilabel plate reader equipped with a plate stacker for readout of multiple plates at a time (PerkinElmer, Waltham, Mass.). For each in vitro TLR2 bioassay, at least three different experiments were performed in triplicate (n≥3). Data were analyzed with GraphPad Prism software, and curves were generated with the appropriate nonlinear fit regression analysis.
Target sequence in this assay (O60603 21-784): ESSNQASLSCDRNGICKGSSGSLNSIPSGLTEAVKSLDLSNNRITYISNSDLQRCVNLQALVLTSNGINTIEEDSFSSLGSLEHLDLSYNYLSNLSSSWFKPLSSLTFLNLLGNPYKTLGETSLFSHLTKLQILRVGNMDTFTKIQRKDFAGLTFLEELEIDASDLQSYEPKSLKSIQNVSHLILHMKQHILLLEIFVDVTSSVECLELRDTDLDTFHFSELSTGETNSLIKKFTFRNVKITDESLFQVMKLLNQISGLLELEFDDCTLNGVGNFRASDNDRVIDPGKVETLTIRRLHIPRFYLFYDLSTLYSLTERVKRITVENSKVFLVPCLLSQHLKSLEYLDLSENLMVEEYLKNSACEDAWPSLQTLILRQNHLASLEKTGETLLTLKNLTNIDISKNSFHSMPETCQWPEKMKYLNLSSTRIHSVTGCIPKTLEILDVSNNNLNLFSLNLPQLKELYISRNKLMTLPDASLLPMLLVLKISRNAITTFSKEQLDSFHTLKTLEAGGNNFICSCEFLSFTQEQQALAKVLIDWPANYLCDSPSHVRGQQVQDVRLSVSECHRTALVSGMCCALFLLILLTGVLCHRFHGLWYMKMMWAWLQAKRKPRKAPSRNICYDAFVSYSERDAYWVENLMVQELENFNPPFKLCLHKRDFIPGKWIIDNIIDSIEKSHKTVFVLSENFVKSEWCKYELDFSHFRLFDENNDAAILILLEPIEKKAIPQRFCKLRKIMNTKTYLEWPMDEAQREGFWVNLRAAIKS

TLR2 [2] = molecular target: T1, TLR2; test: In cyto Europium TRF competition binding assay; parameters: SU.86.86 pancreatic cells with endogenous expression of TLR2 were used for the assay; host or cells: SU.86.86 pancreatic adenocarcinoma cells; conditions: competition with 90 nM Eu-labeled compound 11, SU.86.86 cells, 1 h 37° C.; read-out: TLR2 Binding Affinity (Ki)
Protocol: Europium Time-Resolved Fluorescence (TRF) binding assays were performed as described in Handle et al. with slight modifications using SU.86.86 cells plated in 96-well black plates with white opaque wells (PerkinElmer) (Handl et al., Lanthanide-based time-resolved fluorescence of in cyto ligand-receptor interactions. Anal Biochem 2004, 330(2):242-50; Handl et al., Development of a lanthanide-based assay for detection of receptor-ligand interactions at the delta-opioid receptor. Anal Biochem 2005, 343(2):299-307; Josan et al., Solid-phase synthetic strategy and bioevaluation of a labeled delta-opioid receptor ligand Dmt-Tic-Lys for in vivo imaging. Org Lett 2009, 11(12):2479-82). Cells were grown in the 96-well plates for 2 days reaching approximately 80% confluency. Competition binding assays were performed to test the TLR2 binding specificity of the test ligand using SU.86.86 cells. On the day of the experiment, the cell culture media was aspirated and 50 μL of nonlabeled test ligand was added in a series of decreasing concentrations (1 μM to 0.01 nM) followed by 50 μL of the competing Eu-labeled ligand 11 (Huynh et al., Novel Toll-like Receptor 2 Ligands for Targeted Pancreatic Cancer Imaging and Immunotherapy. J Med Chem 2012) at a fixed concentration of 90 nM. Cells were incubated with labeled and unlabeled ligands for 1 h at 37° C. Following incubation, cells were washed three times to remove unbound ligand. Next, 100 μL of DELFIA Enhancement Solution (PerkinElmer) was added to each well. Cells were incubated for 30 min at 37° C. prior to reading. The plates were read on PerkinElmer VICTOR X4 Multilabel reader using the standard Europium TRF protocol. To determine the mean statistical analysis was performed using GraphPad Prism software. Binding of the monoacyl TLR2 ligand (compound 14 of Table 2) was tested using the (Eu)DTPA chelate version of the diacyl TLR2 ligand (compound 11 used in Huynh et al, Id.) in a time-resolved fluorescence competition binding assay. SU.86.86 pancreatic cells with endogenous expression of TLR2 were used for the assay.
Target sequence in this assay (O60603 21-784): as above

[3] = test system: TLR2 expressing human pancreatic tumor xenografts (SU.86.86 cells); test: In vivo TLR2 selectivity (blocking) fluorescence imaging; parameters: species or system nude mice
Protocol: Female athymic nude mice 6-8 weeks old (Harlan) bearing human pancreatic tumor xenografts of SU.86.86 cells on the right flank were used. Mouse weights and tumor volumes were determined using caliper measurements and the formula: volume (mm3)=(length×width^2)/2. Images were acquired when the tumors reached an average size of 500 mm^3. For the blocked group, a co-injection of 100 nmol/kg of the fluorescently labeled Compound 16 plus 2 μmol/kg Pam2CSK4 (a 20-fold excess) was administered via tail vein injection; for the unblocked group, 100 nmol/kg Compound 16 was administered. Fluorescence images were acquired at time 0 and 24 h using the Caliper Xenogen IVIS200 system (PerkinElmer) with the 710-760 nm excitation and 810-875 nm emission filter set. The fluorescence was quantified using Living Image software, in which the quantified signals were corrected for both instrument and mouse background subtractions. The quantified fluorescence was then plotted using GraphPad Prism software and underwent statistical analysis using Student's t-test.

TLR2 [4] = molecular target: T1, TLR2; conditions: Huynh et al.; read-out: binding affinity (Ki); cited from earlier work
Target sequence in this assay (O60603 21-784, species assumed): as the sequence (O60603 21-784) above

Compound: Pam2CSK4 [reference compound]
cell viability (SU.86.86 cells): cell viability decreases at higher concentrations past 336 nM

EC50 (TLR2 [1]; 0.001 ng/mL to 10 μg/mL, read-out: EC50, TLR2 agonistic activity): 674 nM
agonist activity compared to TLR2 agonist controls (Pam2CSK4, Pam3CSK4, HKLM) (TLR2 [1]): significantly less agonist potency
Ki (TLR2 [2]): 22 nM
Compound: CCCCCCCCCCCCCCCC(=O)OCCSC[C@H](NC(=O)COCC(=O)NCCCOCCOCCOCCCNC(C)=O)C(=O)NCC(=O)N[C@H](CO)C(=O)NCCCOCCOCCOCCCNC(=O)COCC(N)=O [Compound 14, Ac-Pego-Cys(S-[palmitoyloxyethyl])-Gly-DSer-PEGO-NH2]

Compound: CCCCCCCCCCCCCCCC(=O)OCCSC[C@H](NC(=O)COCC(=O)NCCCOCCOCCOCCCNC(=O)c1ccc(C2=C(/C=C/C3=[N+](CCC)c4ccccc4C3(C)C)CCC/C2=C\C=C2\N(CCC)c3ccccc3C2(C)C)cc1)C(=O)NCC(=O)N[C@H](CO)C(=O)NCCCOCCOCCOCCCNC(=O)COCC(N)=O [Compound 16, IR780-Pego-Cys(S-[palmitoyloxyethyl])-Gly-DSer-PEGO-NH2]
IC50 (TLR2 [1]; 0.001 ng/mL to 10 μg/mL, read-out: IC50, inhibition of TLR2 agonistic activity of Pam2CSK4): 361 nM
agonist activity compared to TLR2 agonist controls (Pam2CSK4, Pam3CSK4, HKLM) (TLR2 [1]): significant decrease in agonist response
agonist activity compared to TLR2 agonist controls (Pam2CSK4, Pam3CSK4, HKLM) (TLR2 [1]; listed as compound 16): complete loss in agonist activity
mean tumor fluorescence, unblocked tumor/blocked tumor ([3]; 100 nmol/kg i.v., blocked with 2 μmol/kg Pam2CSK4 (20-fold excess), 24 h): 2.67 fold
tumor fluorescence in blocked versus unblocked group ([3]; 100 nmol/kg i.v., blocked with 2 μmol/kg Pam2CSK4, 24 h post-injection): significant reduction in the ex vivo fluorescence signal; also recorded: significant reduction in the tumor fluorescence
tumor fluorescence signal by in vivo imaging ([3]; 24 h post-injection): retention of fluorescence signal in the tumor
Ki (TLR2 [2]): 16 nM

Ki (TLR2 [2]): 91 nM
Compound: CCCCCCCCCCCCCCCC(=O)OC[C@H](CSC[C@H](NC(=O)COCC(=O)NCCCOCCOCCOCCCNC(C)=O)C(=O)NCC(=O)N[C@H](CO)C(=O)NCCCOCCOCCOCCCNC(=O)COCC(N)=O)OC(=O)CCCCCCCCCCCCCCC [compound 10, reference compound]
Ki (TLR2 [4]): 24 nM
